From ChEMBL document CHEMBL3864170, “Pyrazole Inhibitors of GluN2B NMDA Receptor Subunit” (ACS Med Chem Lett, 2016) come the findings set out here.

SMILES strings stand for the structures.

In one series the target is hERG (KCNH2) (Homo sapiens, UniProt Q12809). As to the kind of experiment: Displacement of [3H]-dofetilide from human ERG expressed in HEK293 cell membranes after 90 mins by scintillation counting. As to conditions: membranes of HEK293 cells that express human ERG, probe [3H]-dofetilide. (Loss of bound radioactivity is the signal in a displacement assay; it reports binding, not function.)
hERG (KCNH2), sequence (Q12809 whole entry): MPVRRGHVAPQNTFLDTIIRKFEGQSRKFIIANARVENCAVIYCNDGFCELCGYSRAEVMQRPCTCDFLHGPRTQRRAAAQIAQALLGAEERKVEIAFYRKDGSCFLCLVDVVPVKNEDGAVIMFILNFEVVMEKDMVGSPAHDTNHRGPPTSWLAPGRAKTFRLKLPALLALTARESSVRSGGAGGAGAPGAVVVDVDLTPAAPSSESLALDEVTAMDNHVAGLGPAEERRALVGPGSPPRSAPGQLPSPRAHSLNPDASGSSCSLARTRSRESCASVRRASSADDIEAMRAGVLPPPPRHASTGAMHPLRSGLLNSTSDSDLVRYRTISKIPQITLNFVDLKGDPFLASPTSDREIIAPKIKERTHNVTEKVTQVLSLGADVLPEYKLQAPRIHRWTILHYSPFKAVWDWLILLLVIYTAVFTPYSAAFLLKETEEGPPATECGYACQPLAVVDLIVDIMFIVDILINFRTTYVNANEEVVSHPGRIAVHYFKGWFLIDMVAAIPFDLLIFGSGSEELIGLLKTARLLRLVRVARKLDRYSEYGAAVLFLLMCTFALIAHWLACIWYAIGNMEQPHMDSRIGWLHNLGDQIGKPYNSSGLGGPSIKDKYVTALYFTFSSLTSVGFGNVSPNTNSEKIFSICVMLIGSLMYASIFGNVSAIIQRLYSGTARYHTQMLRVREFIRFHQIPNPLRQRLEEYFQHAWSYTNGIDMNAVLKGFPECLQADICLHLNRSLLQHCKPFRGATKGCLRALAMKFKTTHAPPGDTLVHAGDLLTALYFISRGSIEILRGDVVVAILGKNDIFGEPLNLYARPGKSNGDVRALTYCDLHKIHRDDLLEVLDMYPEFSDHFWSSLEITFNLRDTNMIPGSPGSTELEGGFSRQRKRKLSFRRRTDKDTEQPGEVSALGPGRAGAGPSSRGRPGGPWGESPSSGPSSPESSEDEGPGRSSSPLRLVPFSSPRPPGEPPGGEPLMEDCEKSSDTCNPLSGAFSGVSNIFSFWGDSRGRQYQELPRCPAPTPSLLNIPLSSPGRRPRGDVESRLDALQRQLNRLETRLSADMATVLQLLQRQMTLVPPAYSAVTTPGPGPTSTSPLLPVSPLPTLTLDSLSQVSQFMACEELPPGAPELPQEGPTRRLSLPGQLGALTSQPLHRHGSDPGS

The target in series [1] is Glutamate receptor ionotropic, NMDA 2B (Rattus norvegicus, UniProt Q00960). As to the kind of experiment: Antagonist activity at Wistar rat brain NR2B assessed as inhibition of glutamate/glycine-induced Ca2+ flux measured after 90 secs. For orientation: Calcium assays in cells follow changes in intracellular calcium, usually with a dye or a luminescent sensor.
Glutamate receptor ionotropic, NMDA 2B, sequence (Q00960 whole entry): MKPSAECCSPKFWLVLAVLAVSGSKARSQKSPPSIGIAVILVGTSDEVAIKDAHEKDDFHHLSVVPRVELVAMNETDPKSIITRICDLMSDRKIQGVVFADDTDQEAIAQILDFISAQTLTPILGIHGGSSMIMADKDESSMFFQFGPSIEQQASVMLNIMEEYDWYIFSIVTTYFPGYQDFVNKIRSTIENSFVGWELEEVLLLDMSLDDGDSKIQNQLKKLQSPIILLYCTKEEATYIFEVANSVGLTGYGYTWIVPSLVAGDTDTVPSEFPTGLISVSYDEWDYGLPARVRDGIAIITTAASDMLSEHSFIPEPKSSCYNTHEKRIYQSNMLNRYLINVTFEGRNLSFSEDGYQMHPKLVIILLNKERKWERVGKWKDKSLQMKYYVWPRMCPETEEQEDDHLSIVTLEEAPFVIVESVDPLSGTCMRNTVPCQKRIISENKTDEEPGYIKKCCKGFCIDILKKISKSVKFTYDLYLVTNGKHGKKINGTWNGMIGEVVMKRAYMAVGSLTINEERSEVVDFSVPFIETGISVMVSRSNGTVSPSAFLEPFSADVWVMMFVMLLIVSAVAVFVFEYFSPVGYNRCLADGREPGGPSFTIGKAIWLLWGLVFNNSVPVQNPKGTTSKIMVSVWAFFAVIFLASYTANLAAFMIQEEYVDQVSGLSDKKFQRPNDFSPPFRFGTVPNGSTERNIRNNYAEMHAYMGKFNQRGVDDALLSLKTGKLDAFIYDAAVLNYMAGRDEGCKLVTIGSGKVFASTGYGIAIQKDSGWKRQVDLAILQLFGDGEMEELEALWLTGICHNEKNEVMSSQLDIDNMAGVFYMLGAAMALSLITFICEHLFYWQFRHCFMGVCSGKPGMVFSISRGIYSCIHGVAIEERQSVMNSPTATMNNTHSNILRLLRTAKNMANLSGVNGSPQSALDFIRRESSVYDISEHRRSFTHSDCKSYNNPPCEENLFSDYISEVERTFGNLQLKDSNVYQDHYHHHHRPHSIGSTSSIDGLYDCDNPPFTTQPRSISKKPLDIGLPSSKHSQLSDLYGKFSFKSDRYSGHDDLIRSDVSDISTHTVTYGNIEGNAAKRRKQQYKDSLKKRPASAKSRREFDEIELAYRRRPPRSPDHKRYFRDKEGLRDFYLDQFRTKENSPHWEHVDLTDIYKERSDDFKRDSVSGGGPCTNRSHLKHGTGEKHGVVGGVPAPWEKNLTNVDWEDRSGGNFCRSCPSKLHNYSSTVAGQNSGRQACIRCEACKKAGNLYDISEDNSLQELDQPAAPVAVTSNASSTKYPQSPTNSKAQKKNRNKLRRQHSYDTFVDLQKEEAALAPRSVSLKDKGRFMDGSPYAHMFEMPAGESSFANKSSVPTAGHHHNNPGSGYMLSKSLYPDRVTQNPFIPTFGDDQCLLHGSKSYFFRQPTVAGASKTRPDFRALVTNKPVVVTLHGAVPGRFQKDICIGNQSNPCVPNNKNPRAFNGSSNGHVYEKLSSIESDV
Series [2] in a line: Antidepressive activity in po dosed NMRI mouse assessed as reduction in duration of immobility administered 30 mins prior to the test measured on last 4 mins of the 10 mins test by force swim test. Format: functional, organism-based.

As for `Cn1ccc(Cn2cc(-c3ccc(Cl)c(C(F)(F)F)c3)cn2)n1`, the IC50 (as a rule, the point on the concentration scale where inhibition reaches its midpoint) at 90 min at hERG (KCNH2) worked out at 3470 nM. For the same compound, in series [1], the IC50 was 1010 nM. `Cn1ccc(Cn2cc(-c3ccc(Cl)c(OC(F)F)c3)cn2)n1`: the MED in series [2] was 30 mg/kg. Consider `Fc1ccc(-c2cnn(Cc3cc[nH]n3)c2)cc1OC(F)F`, for which the MED in series [2] turned out to be 10 mg/kg. In turn, `FC(F)Oc1cc(-c2cnn(Cc3cn[nH]c3)c2)ccc1Cl` yielded a half-maximal inhibitory concentration (IC50) at 90 min at hERG (KCNH2) of 52600 nM. Moreover, in series [1], the IC50 worked out at 8.23 nM.
